Reference: publication PMC10821229, “Synthesis and Antiviral Activity of Novel β-D-N4-Hydroxycytidine Ester Prodrugs as Potential Compounds for the Treatment of SARS-CoV-2 and Other Human Coronaviruses” (Pharmaceuticals, 2023)
Entries after “also recorded” stand apart in the source; their conditions may differ.

Test system: HCoV-229E and three SARS-CoV-2 variants
Experiment: Antiviral effect against all tested coronavirus variants (text comparisons)
Format: cell-based, human coronavirus
Settings: for antiviral effect against all tested coronavirus variants (in words): HCoV-229E and three SARS-CoV-2 variants

SMILES	antiviral effect against all tested coronavirus variants (in words)	further results
O=C(Cc1ccccc1F)OC[C@H]1O[C@@H](n2ccc(NO)nc2=O)[C@H](O)[C@@H]1O [SN_17, 5′-O-(2-Fluorophenyl)acetyl-N4-hydroxycytidine]	–	fold increase in antiviral activity compared to SN_18 (compared with 4-fluoro substituted conjugate SN_18): ≥ 2 fold
O=C(OC[C@H]1O[C@@H](n2ccc(NO)nc2=O)[C@H](O)[C@@H]1O)C1(c2ccccc2)CC1 [SN_20, 5′-O-(1-Phenylcyclopropanoyl-1-carbonyl)-N4-hydroxycytidine]	no antiviral effect; also recorded: lowest activity	–
Cc1cccc(OCC(=O)OC[C@H]2O[C@@H](n3ccc(NO)nc3=O)[C@H](O)[C@@H]2O)c1 [SN_22, 5′-O-(3-Methylphenoxy)acetyl-N4-hydroxycytidine]	highest activity	–
COc1cccc(CCC(=O)OC[C@H]2O[C@@H](n3ccc(NO)nc3=O)[C@H](O)[C@@H]2O)c1 [SN_23, 5′-O-3-(3-Methoxyphenyl)propanoyl-N4-hydroxycytidine]	–	times higher antiviral effect than SN_15 and SN_16 (compared with SN_15 and SN_16): 2–6 times
